Reference: patent publication US20220411419A1, “SMALL MOLECULE MODULATORS OF MHC-I” (RetroVirox, Inc., priority 2018, published 2022)
pEC50: −log10 of the molar value. Where two headings read alike, the source gives them in different places.

Legend:
[1] = system: downmodulation of MHC-I molecules expressed on the surface of HIV infected SupT1 cells; assay: cells
[2] = system: surface MHC-I in uninfected SupT1 cells (GFP-negative); assay: Surface MHC-I in GFP-negative (uninfected) SupT1 cells of cultures treated with HIV-1 (FIG. 4); format: cell-based; conditions: dose-dependent
Method: FIG. 4 represents the levels of expression of surface MHC-I in uninfected SupT1 cells (GFP-negative) incubated with vehicle alone (0.1% DMSO) or with compounds #40, #53, #54, #56 or #100 at different concentrations. Values are shown as the percentage of the MHC-I expression observed in cells treated with 0.1% DMSO alone. All samples were incubated with HIV-1 reporter virus (NL4.3-GFP) except those shown as ΔNef, which are shown for reference and were treated with nef-defective virus.
To determine whether the inhibitors of MHC-I downmodulation are specific for HIV infection a study to determine whether the compounds also interfere with expression of MHC-I in uninfected cells was undertaken. The effect of the same compounds was evaluated in SupT-1 cells treated with HIV-1 as shown before, but this time the levels of expression of MHC-I were obtained in GFP-negative cells (FIG. 4). […] The increase was dose-dependent and compounds elevated MHC-I levels by as much as 70% (as compared to cells treated with vehicle alone).

[3] = system: MHC-I surface expression in uninfected SupT1 cells; assay: Increase of MHC-I surface expression in uninfected SupT1 cells (mean-MHC-I EC50, FIG. 6A); format: cell-based; conditions: Homo sapiens, SUP-T1, 24 h with compound, read-out: EC50 for MHC-I increased surface expression
Method: In some instances, the effect of small molecules in modulation of surface MHC-I was monitored in uninfected (rather than HIV-infected) Sup-T1 cells (FIG. 6A). In these experiments uninfected SupT1 cells were incubated with the compounds for 24 h and then the increase in MHC-I surface expression was monitored by staining cells with the biotinylated HLA-A2/28 antibody (One Lambda, clone BIH0037), washed and then incubated with streptavidin conjugated with APC (Streptavidin APC, EBiosciences, 17-4317) to reveal the anti-HLA-A2 bound antibody. After washing the cells again they were fixed with 0.5% paraformaldehyde and submitted to flow cytometry to determine the levels of MHC-I surface expression (APC fluorescence) in live cells (as estimated by FS/SS in these cells). […] From these assays “mean-MHC-I” EC50 values were generated to indicate the concentration of compound that augments the mean surface levels of MHC-I to 50% of the highest levels accomplished by the compound, as compared to cells treated with vehicle alone. […] Therefore, both assays: inhibition of MHC-I downmodulation in HIV infected SupT1 cells, or increase in surface MHC-I in uninfected SupT1 cells, were indistinctively used to monitor the potency of the compounds to modulate surface expression of MHC-I in SupT1 cells.
Table 7 show the activity of selected compounds utilizing the assay in which the increase of MHC-I surface expression in uninfected SupT1 cells was evaluated, as shown in FIG. 6A. The EC50 for MHC-I increased surface expression was determined using the methods described in Example 2 and illustrated in FIG. 6A.

[4] = in vitro; conditions: human, uninfected SupT1 cells
[5] = system: downmodulation of MHC-I molecules expressed on the surface of HIV infected SupT1 cells; conditions: for pEC50: read-out: EC50 for inhibition of MHC-I downmodulation utilizing the R1 parameter, SupT1 cells infected with HIV-1, compounds added 20 h after infection, 24 h incubation
[6] = system: uninfected SupT1 cells; assay: Compound-induced toxicity, XTT cell viability assay; conditions: read-out: CC50 (concentration reducing cell viability by 50%), XTT method, 48 h, Tables 3 and 4
[7] = Human immunodeficiency virus 1, SUP-T1, 24 h, read-out: EC50 for R1 (inhibition of MHC-I downmodulation)
[8] = Human immunodeficiency virus 1, SUP-T1, read-out: EC50 for inhibition of MHC-I downmodulation utilizing the R1 parameter

Structure (SMILES)	pEC50 [1, 7]	pEC50 [1, 8]	surface levels of MHC-I in uninfected cells [2]	pEC50 [3]	CC50 [4]	CC50 at 48 h [4]	viability of the cell culture (estimated by FS/SS) ([5]; 100 nM compound, FIG. 2G)	R4 values lower than in cells treated with DMSO only ([5]; 100 nM compound, SupT1 cells infected with wild-type virus)	CC50 [6]	pEC50 [5]
C=CCN(C(=O)COc1cccc2c1OC(C)(C)C2)c1nc2c(s1)CCCC2 [Compound 56, N-Allyl-2-((2,2-dimethyl-2,3-dihydrobenzofuran-7-yl)oxy)-N-(4,5,6,7-tetrahydrobenzo[d]thiazol-2-yl)acetamide]	~9.00	9.00	increased the surface levels of MHC-I in uninfected cells	8.22	> 125000 nM	> 125000 nM	–	–	–	–
CN(C(=O)COc1cccc2c1OC(C)(C)C2)c1nc2c(s1)CCCC2 [Compound 53, 2-((2,2-Dimethyl-2,3-dihydrobenzofuran-7-yl)oxy)-N-methyl-N-(4,5,6,7-tetrahydrobenzo[d]thiazol-2-yl)acetamide]	–	8.52	increased the surface levels of MHC-I in uninfected cells	7.92	> 125000 nM	> 125000 nM	–	–	–	–
Cc1ccc(CN(C(=O)COc2cccc3c2OC(C)(C)C3)c2nc3c(s2)CCCC3)nc1 [Compound 40, 2-((2,2-Dimethyl-2,3-dihydrobenzofuran-7-yl)oxy)-N-((5-methylpyridin-2-yl)methyl)-N-(4,5,6,7-tetrahydrobenzo[d]thiazol-2-yl)acetamide]	–	8.10	increased the surface levels of MHC-I in uninfected cells	–	–	> 100000 nM	nor the viability of the cell culture (estimated by FS/SS) was affected	approximately 10 fold	–	–
CC1(C)Cc2cccc(OCC(=O)Nc3nc4c(C#N)cccc4s3)c2O1 [Compound 100, N-(4-cyanobenzo[d]thiazol-2-yl)-2-((2,2-dimethyl-2,3-dihydrobenzofuran-7-yl)oxy)acetamide]	7.15	7.15	increased the surface levels of MHC-I in uninfected cells	–	–	100 nM	–	–	–	–
CC1(C)Cc2cccc(CCC(=O)Nc3nc4ccccc4s3)c2O1 [Compound 108, N-(Benzo[d]thiazol-2-yl)-3-(2,2-dimethyl-2,3-dihydrobenzofuran-7-yl) propanamide]	–	–	–	–	–	–	–	–	> 100000 nM	5.86
Cc1ccccc1CCC(=O)N(C)c1nc2c(s1)CCCC2 [Compound 109, N-Methyl-N-(4,5,6,7-tetrahydrobenzo[d]thiazol-2-yl)-3-(o-tolyl) propanamide]	–	–	–	–	–	–	–	–	> 125000 nM	5.68
CCN(C(=O)COc1cccc2c1OC(C)(C)C2)c1nc2c(s1)CCCC2 [Compound 54, 2-((2,2-Dimethyl-2,3-dihydrobenzofuran-7-yl)oxy)-N-ethyl-N-(4,5,6,7-tetrahydrobenzo[d]thiazol-2-yl)acetamide]	–	8.10	increased the surface levels of MHC-I in uninfected cells	8.05	> 125000 nM	> 125000 nM	–	–	–	–
